Measured values reported in PMC10459521, “Unfolding the Antibacterial Activity and Acetylcholinesterase Inhibition Potential of Benzofuran-Triazole Hybrids: Synthesis, Antibacterial, Acetylcholinesterase Inhibition, and Molecular Docking Studies” (Molecules, 2023).
In brackets after ≈: the same amount, converted by molar mass. Like-named read-outs stand apart in the source and are kept apart here.

Tests used:
AChE = settings: Figure 2; cited from earlier work
[1] = target: acetylcholinesterase (AChE) (Homo sapiens, UniProt P22303); assay: AChE inhibition assay (modified Ellman's method); format: biochemical; settings: for inhibition at 500 µM: 0.5 mM; for IC50: Ellman's method
Sequence of acetylcholinesterase (AChE) (P22303 32-614): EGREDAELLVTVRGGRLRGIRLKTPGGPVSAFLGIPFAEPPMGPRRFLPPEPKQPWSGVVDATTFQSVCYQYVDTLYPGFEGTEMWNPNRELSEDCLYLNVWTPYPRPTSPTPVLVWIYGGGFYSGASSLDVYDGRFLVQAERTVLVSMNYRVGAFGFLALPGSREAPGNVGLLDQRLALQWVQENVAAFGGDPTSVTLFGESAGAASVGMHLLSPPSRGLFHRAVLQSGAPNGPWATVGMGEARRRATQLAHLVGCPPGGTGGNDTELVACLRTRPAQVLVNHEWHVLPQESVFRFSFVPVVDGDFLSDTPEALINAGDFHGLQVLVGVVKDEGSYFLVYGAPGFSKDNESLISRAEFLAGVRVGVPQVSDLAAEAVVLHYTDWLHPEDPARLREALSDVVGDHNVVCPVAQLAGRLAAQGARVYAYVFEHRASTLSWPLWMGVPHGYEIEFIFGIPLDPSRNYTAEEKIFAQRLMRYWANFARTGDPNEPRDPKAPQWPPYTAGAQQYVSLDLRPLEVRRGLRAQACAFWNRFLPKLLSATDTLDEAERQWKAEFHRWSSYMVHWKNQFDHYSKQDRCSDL
Method: The inhibitory effects of all synthesized derivatives on AChE activities were measured using a modified Ellman’s method. This experimental study used DTNB (5,5′-dithio-bis(2-nitro-benzoic)acid) and AChI as the […]. The tested compounds (10 µL; […]) were mixed with AChE (50 µL; 38 U) solution and incubated for 10 min at 25 °C. DTNB (50 µL; 0.3 mM) was then added. The transfer of AChI (200 µL; 50 mM Tris/HCl buffer pH = 8) initiated the reaction. A spectrophotometer recorded the hydrolysis of AChI by the formation of yellow 5-thio-2-nitrobenzoate anions as a result of the reaction of DTNB with thiocholine at a wavelength of 412 nm. […] The given formula was used to calculate the (%) inhibition: Inhibition %=Control−Test/Control×100
IC50 values were calculated using data from GraphPad Prism 5 software.

B. subtilis QB-928 = assay: Antibacterial assay, disc diffusion method (inhibition zone and MIC); format: cell-based; settings: for zone of inhibition at 25 µg/disc: QB928, disc diffusion; for zone of inhibition at 25 µg/disc / Inhibition Zone: 25 μg per disc, includes 5.6 mm disc diameter; for Inhibition Zone: disc diffusion
Method: (§1) The evaluation of in vitro antibacterial activity of synthesized compounds was performed against two bacterial strains, namely Gram +ve B. subtilis QB-928 and Gram −ve E. coli AB-274 using the disc diffusion method.
(§2) The antibacterial potential of all targeted compounds was evaluated using the disc diffusion method. A suspension of 100 μL containing 10^8 cfu/mL of bacteria was applied on nutrient agar media with the support of a sterilized loop. The compound solution was infused into sterilized filter paper discs (5.6 mm in diameter) at a particular concentration (25 μg/100 μL) in chloroform. The standard penicillin (25 μg per disc) was utilized as a positive control for antibacterial assay. These discs were carefully placed on agar which had originally been […] with selected bacterial cells. The agar culture plates were stored at 4 °C for 1 h and then the bacterial culture plate was incubated at 27 °C for 24 h. The inhibition zone was determined in millimeters (including the 5.6 mm disc diameter) with a reference control.

E. coli AB-274 = assay: as above; format: cell-based; settings: for Inhibition Zone / zone of inhibition at 25 µg/disc: disc diffusion, 25 μg per disc, includes 5.6 mm disc diameter
Method: as §1
as §2, with “The compound solution was infused into sterilized filter paper discs (5.6 mm in diameter) at a particular concentration (25 μg/100 μL) in chloroform.” left out, “The inhibition zone was determined in millimeters (including the 5.6 mm disc diameter) with a reference control.” left out

[2] = Bacillus subtilis, QB928, read-out: MIC
[3] = Escherichia coli, AB274, E. coli
[4] = Escherichia coli, AB274, E. coli, read-out: MIC

Molecule | IC50 (AChE) | inhibition at 500 µM [1] | IC50 [1] | zone of inhibition at 25 µg/disc (B. subtilis QB-928; Bacillus subtilis) | MIC (B. subtilis QB-928; [2]) | Inhibition Zone (B. subtilis QB-928) | Inhibition Zone (E. coli AB-274; E. coli) | zone of inhibition at 25 µg/disc (E. coli AB-274; [3]) | MIC (E. coli AB-274; [4]) | also measured
O=C(NCCCNc1c2c(nc3cc(Cl)ccc13)CCCC2)c1cc2ccccc2o1 [Compound 1b] | 120 nM | – | – | – | – | – | – | – | – | –
Cc1ccc(NC(=O)CSc2nnc(-c3cc4cc(Br)ccc4o3)n2-c2ccccc2)cc1C [Compound 10b, 2-((5-(5-Bromobenzofuran-2-yl)-4-phenyl-4H-1,2,4-triazol-3-yl)thio)-N-(3,4-dimethylphenyl)acetamide] | – | 61.7 ± 1.5% | 1500 ± 1000 nM | 42 mm | 1.25 ± 0.6 µg/mL (≈ 2.34 µM) | 42 ± 1.00 mm | 11.5 ± 1.40 mm | 11.5 mm | 3.8 ± 2.1 µg/mL (≈ 7.12 µM) | MIC (B. subtilis QB-928): 1.25 µg/mL (≈ 2.34 µM)
penicillin [reference compound] | – | – | – | – | – | 18 ± 0.50 mm | 24 ± 0.50 mm | – | – | MIC (B. subtilis QB-928): 1 ± 1.50 µg/mL; Inhibition Zone (B. subtilis QB-928; listed as penicillin): 18 mm; MIC (B. subtilis QB-928; listed as penicillin): 1 µg/mL; MIC (E. coli AB-274; E. coli): 2.4 ± 1.00 µg/mL
O=C(CSc1nnc(-c2cc3cc(Br)ccc3o2)n1-c1ccc(Cl)c(Cl)c1)Nc1ccc(Cl)c(Cl)c1 [Compound 10e, 2-((5-(5-Bromobenzofuran-2-yl)-4-(3,4-dichlorophenyl)-4H-1,2,4-triazol-3-yl)thio)-N-(3,4-dichlorophenyl)acetamide] | – | 51.2 ± 1.24% | 1980 ± 250 nM | 8 mm | 14 ± 1.8 µg/mL (≈ 21.8 µM) | 8 ± 0.75 mm | 24 ± 0.50 mm | 24 mm | 2.5 ± 1.4 µg/mL (≈ 3.89 µM) | –
COc1cccc2cc(C(=O)NCCn3ccc(=O)c(OCc4ccccc4)c3C)oc12 [Compound 1d] | 76000 nM | – | – | – | – | – | – | – | – | –
O=C(CSc1nnc(-c2cc3cc(Br)ccc3o2)n1-c1ccccc1)Nc1ccc([N+](=O)[O-])cc1 [Compound 10c, 2-((5-(5-Bromobenzofuran-2-yl)-4-phenyl-4H-1,2,4-triazol-3-yl)thio)-N-(4-nitrophenyl)acetamide] | – | 55.9 ± 1.25% | 2280 ± 1750 nM | – | – | no detectable results | 28 ± 0.00 mm | 28 mm | 2.5 ± 0.7 µg/mL (≈ 4.54 µM) | –
COc1cccc2cc(C(=O)NCCCCNC(=O)c3cc4ccccc4o3)c(=O)oc12 [Compound 1c] | 180 ± 50 nM | – | – | – | – | – | – | – | – | –
Cc1cc(C)cc(C[n+]2ccc(-c3cc4ccccc4o3)cc2)c1 [Compound 1a] | 4.1 ± 1.5 nM | – | – | – | – | – | – | – | – | –
COc1ccc(OC)c(NC(=O)CSc2nnc(-c3cc4cc(Br)ccc4o3)n2-c2ccc(Cl)c(Cl)c2)c1 [Compound 10d, 2-((5-(5-Bromobenzofuran-2-yl)-4-(3,4-dichlorophenyl)-4H-1,2,4-triazol-3-yl)thio)-N-(2,5-dimethoxyphenyl)acetamide] | – | 81.45 ± 0.5% | 550 ± 1000 nM | 11 mm | 9.25 ± 1.25 µg/mL (≈ 14.6 µM) | 11 ± 0.50 mm | 12 ± 0.65 mm | 12 mm | 16 ± 1 µg/mL (≈ 25.2 µM) | –
O=C(CSc1nnc(-c2cc3cc(Br)ccc3o2)n1-c1ccccc1)Nc1ccccc1 [Compound 10a, 2-((5-(5-bromobenzofuran-2-yl)-4-phenyl-4H-1,2,4-triazol-3-yl)thio)-N-phenylacetamide] | – | 65.8 ± 1.5% | 880 ± 500 nM | – | – | no detectable results | 38 ± 1.50 mm | 38 mm | – | MIC (E. coli AB-274; E. coli): 1.80 µg/mL (≈ 3.56 µM); MIC (E. coli AB-274; Escherichia coli, AB274): 1.8 ± 0.25 µg/mL (≈ 3.56 µM)
